Reference: patent publication US20020026053A1, “Novel 3-(substituted) -2- indolinones compounds and use thereof as inhibitors of protein kinase activity” (priority 1997, published 2002)

Key:
EGFR = molecular target: T1, EGFR (Homo sapiens, UniProt P00533); assay: Biochemical EGFR Assay; design: concentration or dose not given beside the values
T1 construct: endogenous in cells; host or cells: A431 cells (lysate, captured with SUMO1 anti-EGFR antibody)
Procedure: This assay measures the in vitro kinase activity of EGFR using ELISA.
1. Corning 96-well Elisa plates (Corning Catalog No. 25805-96).
2. SUMO1 monoclonal anti-EGFR antibody (Biochemistry Lab, SUGEN, Inc.).
3. PBS (Dulbecco's Phosphate-Buffered Saline, Gibco Catalog No. 450-1300EB).
6. A431 cell lysate (Screening Lab, SUGEN, Inc.)
9. Adenosine-5′-triphosphate (ATP, from Equine muscle, Sigma Cat. No. A-5394).
Prepare a 1.0 mM solution in dH2O. This reagent should be made up immediately prior to use and kept on ice.
Prepare a 1.0 M stock solution in dH2O.
11. ATP/MnCl2 phosphorylation mix
This reagent should be prepared immediately before use and kept on ice
12. NUNC 96-well V bottom polypropylene plates (Applied Scientific Cat. No. AS-72092).
13. Ethylenediaminetetraacetic acid (EDTA)
Prepare 200 mM working solution in dH2O. Adjust to pH 8.0 with 10 N NaOH.
14. Rabbit polyclonal anti-phosphotyrosine serum (Biochemistry Lab, SUGEN, Inc.)
15. Goat anti-rabbit IgG peroxidase conjugate (Biosource Cat. No. ALI0404)
16. ABTS (2,2′-azino-bis(3-ethylbenzthiazoline-6-sulfonic acid), Sigma Cat. No. A-1888).
Mix first two ingredients in about 900 ml dH2O, adjust pH to 4.0 with phosphoric acid. Add ABTS, cover, let sit about 0.5 hr., filter. The solution should be kept in the dark at 4° C. until ready to use.
17. Hydrogen peroxide 30% solution (Fisher Cat. No. H325)
Mix 15 ml ABTS solution and 2.0 μl H2O2. Prepare 5 minutes before use.
1. Coat Corning 96 well ELISA plates with 0.5 μg SUMO1 in 100 μl PBS per well, store overnight at 4° C.
2. Remove unbound SUMO1 from wells by inverting plate to remove liquid. Wash 1× with dH2O. Pat the plate on a paper towel to remove excess liquid.
3. Add 150 μl of Blocking Buffer to each well. Incubate for 30 min. at room temperature with shaking.
4. Wash plate 3× with deionized water, then once with TBST. Pat plate on a paper towel to remove excess liquid and bubbles.
5. Dilute lysate in PBS (7 μg lysate/100 μl PBS)
6. Add 100 μl of diluted lysate to each well. Shake at room temperature for 60 min.
7. Wash plates as described in 4, above.
8. Add 120 μl TBS to ELISA plate containing captured EGFR.
9. Dilute test compound 1:10 in TBS in 96-well polypropylene plates (ie. 10 μl compound+90 μl TBS).
10. Add 13.5 μl diluted test compound to ELISA plate.
11. Incubate for 30 minutes while shaking at room temperature.
13. After 5 minutes, stop reaction by adding 16.5 μl of 200 mM EDTA (pH 8.0) to each well, shaking continuously. After the EDTA has been added, shake for 1 min.
14. Wash 4× with deionized water, twice with TBST.
15. Add 100 μl anti-phosphotyrosine (1:3000 dilution in TBST) per well. Incubate 30-45 min. at room temperature, with shaking.
16. Wash as described in 4, above.
17. Add 100 μl Biosource Goat anti-rabbit IgG peroxidase conjugate (1:2000 dilution in TBST) to each well. Incubate 30 min. at room temperature, with shaking.
18. Wash as described in 4, above.
19. Add 100 μl of ABTS/H2O2 solution to each well.
20. Incubate 5 to 10 minutes with shaking. Remove any bubbles.
21. If necessary stop reaction with the addition of 100 μl 0.2 M HCl per well.
22. Read assay on Dynatech MR7000 ELISA reader. Test Filter: 410 nM Reference Filter: 630 nM

PDGF-R = PDGF-R Assay (cellular ELISA, U1242 cells); type: cell-based; design: concentration or dose not given beside the values
In short: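 U1242 cells seeded in 0.5% serum, serum-starved, then exposed to compound for 2 hr at 37°C before 5–10 min ligand stimulation and lysis in HNTG. Lysate captured on receptor-antibody-coated plates; phosphotyrosine detected with polyclonal anti-pTyr, goat anti-rabbit IgG and ABTS/H2O2, A410 (ref 630 nm), versus untreated cells.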

T1 sequence (P00533 25-1210): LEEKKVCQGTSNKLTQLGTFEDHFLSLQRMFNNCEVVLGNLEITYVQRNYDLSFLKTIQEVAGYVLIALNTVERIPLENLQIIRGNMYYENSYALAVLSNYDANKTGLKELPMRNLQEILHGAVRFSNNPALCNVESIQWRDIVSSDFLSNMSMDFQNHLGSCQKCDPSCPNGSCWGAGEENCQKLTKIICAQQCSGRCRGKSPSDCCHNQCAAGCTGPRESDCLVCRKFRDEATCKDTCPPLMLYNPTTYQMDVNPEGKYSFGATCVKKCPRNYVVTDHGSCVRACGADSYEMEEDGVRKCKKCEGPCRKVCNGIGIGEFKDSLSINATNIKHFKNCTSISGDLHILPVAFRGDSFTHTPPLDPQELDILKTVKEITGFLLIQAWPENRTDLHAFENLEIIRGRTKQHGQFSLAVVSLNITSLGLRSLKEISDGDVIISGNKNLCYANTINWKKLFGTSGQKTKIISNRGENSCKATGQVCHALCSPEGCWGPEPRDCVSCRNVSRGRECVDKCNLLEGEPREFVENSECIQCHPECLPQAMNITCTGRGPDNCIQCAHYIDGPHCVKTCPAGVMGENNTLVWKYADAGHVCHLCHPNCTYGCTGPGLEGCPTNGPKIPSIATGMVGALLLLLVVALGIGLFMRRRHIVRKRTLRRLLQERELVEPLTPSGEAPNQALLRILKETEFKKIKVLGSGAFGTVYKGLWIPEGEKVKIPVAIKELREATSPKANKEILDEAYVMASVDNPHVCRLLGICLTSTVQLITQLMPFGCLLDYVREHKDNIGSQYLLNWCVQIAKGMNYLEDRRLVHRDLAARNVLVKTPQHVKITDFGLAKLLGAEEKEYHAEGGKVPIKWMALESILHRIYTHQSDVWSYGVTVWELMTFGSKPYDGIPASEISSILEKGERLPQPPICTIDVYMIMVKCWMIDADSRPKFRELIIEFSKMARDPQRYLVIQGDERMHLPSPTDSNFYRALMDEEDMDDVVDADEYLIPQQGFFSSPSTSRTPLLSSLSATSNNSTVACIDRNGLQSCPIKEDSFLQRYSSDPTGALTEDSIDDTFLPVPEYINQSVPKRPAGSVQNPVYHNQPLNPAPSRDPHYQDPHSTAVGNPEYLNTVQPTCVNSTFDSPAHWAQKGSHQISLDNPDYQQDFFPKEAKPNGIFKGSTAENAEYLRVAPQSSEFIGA

| SMILES | Biochem EGFR % Inhibition (P.167) (EGFR) [%] | PDGF Kinase % Inhibition (P.119) (PDGF-R) [%] |
| --- | --- | --- |
| CCOC(=O)c1c(C)[nH]c(C=C2C(=O)Nc3c(Br)cc(Br)c(C)c32)c1C [10718/H02] | −22.5 |  |
| COc1cc(Br)c(O)c(C=C2C(=O)Nc3c(Br)cc(Br)c(C)c32)c1 [10718/H03] | 33.2 |  |
| Cc1c(Br)cc(Br)c2c1C(=Cc1ccc3ccccc3c1O)C(=O)N2 [10718/H04] | 13.7 |  |
| CCOC(=O)CCc1c(C(=O)OCC)[nH]c(C=C2C(=O)Nc3c(Br)cc(Br)c(C)c32)c1CC(=O)OCC [10718/H05] | 0.2 |  |
| CCOC(=O)c1cc(C=C2C(=O)Nc3c(Br)cc(Br)c(C)c32)oc1C [10718/H06] | −5.1 |  |
| COC(=O)c1[nH]c(C)c(C=C2C(=O)Nc3c(Br)cc(Br)c(C)c32)c1C(=O)OC [10718/H07] | −12.0 |  |
| Cc1c(Br)cc(Br)c2c1C(=Cc1ccc(Cl)c([N+](=O)[O-])c1)C(=O)N2 [10718/H08] | −2.5 |  |
| CCOc1cccc(C=C2C(=O)Nc3c(Br)cc(Br)cc32)c1O [10734/A02] | 0.0 | −3.8 |
| O=C1Nc2c(Br)cc(Br)cc2C1=Cc1cc(Cl)cc(Cl)c1O [10734/A03] | 18.5 | 22.3 |
| O=C1Nc2c(Br)cc(Br)cc2C1=Cc1cc(Cl)ccc1O [10734/A04] | 11.4 | 11.7 |
| CCN(CC)c1ccc(C=C2C(=O)Nc3c(Br)cc(Br)cc32)c(O)c1 [10734/A05] | 22.6 | 2.9 |
| O=C1Nc2c(Br)cc(Br)cc2C1=Cc1ccc([N+](=O)[O-])cc1 [10734/A06] | −6.4 | −9.9 |
| O=C1Nc2c(Br)cc(Br)cc2C1=Cc1cc(Br)cc(Br)c1O [10734/A07] | 15.2 | 21.9 |
| O=C1Nc2c(Br)cc(Br)cc2C1=Cc1cccc(F)c1O [10734/A08] | 6.8 | 9.1 |
| O=C1Nc2c(Br)cc(Br)cc2C1=Cc1ccc(O)c(Br)c1 [10734/A09] | 27.3 | −9.5 |
| CC(C)(C)c1ccc(C=C2C(=O)Nc3c(Br)cc(Br)cc32)cc1 [10734/A10] | 27.8 | 26.3 |
| O=C1Nc2c(Br)cc(Br)cc2C1=Cc1ccc(Br)s1 [10734/A11] | 12.5 | 5.5 |
| CCOc1cccc(C=C2C(=O)Nc3ccc(I)cc32)c1O [10734/B02] | −8.9 | −2.9 |
| O=C1Nc2ccc(I)cc2C1=Cc1cc(Cl)cc(Cl)c1O [10734/B03] | 45.1 | 13.0 |
| O=C1Nc2ccc(I)cc2C1=Cc1cc(Cl)ccc1O [10734/B04] | 38.7 | 14.4 |
| CCN(CC)c1ccc(C=C2C(=O)Nc3ccc(I)cc32)c(O)c1 [10734/B05] | 17.8 | 56.3 |
| O=C1Nc2ccc(I)cc2C1=Cc1ccc([N+](=O)[O-])cc1 [10734/B06] | 54.0 | 0.2 |
| O=C1Nc2ccc(I)cc2C1=Cc1cc(Br)cc(Br)c1O [10734/B07] | 65.5 | 18.8 |
| O=C1Nc2ccc(I)cc2C1=Cc1cccc(F)c1O [10734/B08] | 19.3 | −2.4 |
| O=C1Nc2ccc(I)cc2C1=Cc1ccc(O)c(Br)c1 [10734/B09] | 34.9 | 12.6 |
| CC(C)(C)c1ccc(C=C2C(=O)Nc3ccc(I)cc32)cc1 [10734/B10] | 60.7 | 7.7 |
